Among the data in paper PMC12040169 (PLOS Biology, 2025) are viability values, retold here.

The viability is a read-out of living cells in per cent, often relative to untreated cells.

The first series in a line: in vitro. The conditions noted are these: human, hela cells, % viability.
In the case of `CN(C)CCN(Cc1ccccc1)C(=O)NCc1ccc(C#N)cc1` [CBK155097], the viability at 28.5 h, 10 µM turned out to be 89.2%.

Take `CN(C)CCN(Cc1ccccc1)C(=O)NCc1ccc(Cl)cc1` [CBK155106]: the viability at 28.5 h, 10 µM stood at 94.2%.

As for `CCOC(=O)N1CCC(NC(=O)N(CCN(C)C)Cc2ccccc2)CC1` [CBK155121], the viability at 28.5 h, 10 µM is 109%.

As for `CCN(Cc1ccncc1)C(=O)NCc1cc(C)on1` [CBK155122], the viability at 28.5 h, 10 µM came out at 85.2%.

For `CCN(Cc1ccncc1)C(=O)NCCCN1CCN(C)CC1` [CBK155123], the viability at 28.5 h, 10 µM turned out to be 108%.

Regarding `CCN(Cc1ccncc1)C(=O)NCC1CCCCC1` [CBK155132], the viability at 28.5 h, 10 µM turned out to be 103%.

Take `CCN(Cc1ccncc1)C(=O)Nc1ccc2[nH]ccc2c1` [CBK155136]: the viability at 28.5 h, 10 µM is 99.5%.

For `CCN(Cc1ccncc1)C(=O)NCc1c(Cl)cccc1Cl` [CBK155144], the viability at 28.5 h, 10 µM amounted to 107%.

Consider `CCN(Cc1ccncc1)C(=O)NCc1ccc(F)cc1` [CBK155146], for which the viability at 28.5 h, 10 µM amounted to 96.4%.

For `CCN(CC)CCNC(=O)N(CC)Cc1ccncc1` [CBK155151], the viability at 28.5 h, 10 µM is 105%.

With `CCN(Cc1ccncc1)C(=O)NC(C)c1ccccc1` (stereo not shown) [CBK155156], the viability at 28.5 h, 10 µM is 101%.

For the compound `Cc1cnc(CNC(=O)N2CCc3ccccc3C2)cn1` [CBK155166], the viability at 28.5 h, 10 µM came out at 97.3%.

On to `CSCCCNC(=O)N1CCN(c2ccccc2)CC1` [CBK155170], for which the viability at 28.5 h, 10 µM was found to be 96.5%.

In the case of `O=C(NCc1cccnc1)N1CCN(c2ccccc2)CC1` [CBK155178], the viability at 28.5 h, 10 µM stood at 98.2%.

Consider `O=C(Nc1ccc(Cl)cc1)N1CCN(c2ccccc2)CC1` [CBK155188], for which the viability at 28.5 h, 10 µM was determined as 101%.

Take `O=C(NCc1c(Cl)cccc1Cl)N1CCN(c2ccccc2)CC1` [CBK155194]: the viability at 28.5 h, 10 µM was 98.5%.

As for `O=C(NC1CCc2ccccc21)N1CCN(c2ccccc2)CC1` (stereo not shown) [CBK155208], the viability at 28.5 h, 10 µM came to 92.2%.

`CCOC(=O)CCCNC(=O)N1CCN(c2ccccc2)CC1` [CBK155209]: the viability at 28.5 h, 10 µM came to 94.6%.

In the case of `CCOC(=O)N1CCC(NC(=O)N2CCN(c3ccccc3)CC2)CC1` [CBK155210], the viability at 28.5 h, 10 µM stood at 113%.

Take `CCOC(=O)CCNC(=O)N(CC)Cc1ccccc1` [CBK155228]: the viability at 28.5 h, 10 µM came to 88.7%.

In the case of `O=c1c(N2CCC(Sc3ccccc3)CC2)nccn1Cc1ccc(OC(F)(F)F)cc1` [CBK155257], the viability at 28.5 h, 10 µM is 94.7%.

For `COc1ccc(C(=O)N2CCN(C)CC2)cc1Nc1cncc(-c2cc3ccccc3o2)n1` [CBK155266T], the viability at 28.5 h, 10 µM turned out to be 89.9%.

For the compound `O=C(Nc1ccc2[nH]ccc2c1)N1CCc2ccccc2C1` [CBK155289], the viability at 28.5 h, 10 µM amounted to 84.5%.

`NC(=O)c1ccc(NC(=O)N2CCc3ccccc3C2)cc1` [CBK155299]: the viability at 28.5 h, 10 µM is 80.9%.

As for `CC(NC(=O)N1CCc2ccccc2C1)c1ccccc1` (stereo not shown) [CBK155310], the viability at 28.5 h, 10 µM amounted to 102%.

As to `O=C(Nc1cccnc1)N1CCc2ccccc2C1` [CBK155312], the viability at 28.5 h, 10 µM was determined as 100%.

On to `COc1cc(CNC(=O)N(CCc2ccccc2)Cc2ccccc2)cc(OC)c1OC` [CBK155329], for which the viability at 28.5 h, 10 µM was 110%.

Turning to `CC(C)CNC(=O)N(CCc1ccccc1)Cc1ccccc1` [CBK155339], the viability at 28.5 h, 10 µM was determined as 93.8%.

As for `CC(C)CCNC(=O)N(CCc1ccccc1)Cc1ccccc1` [CBK155351], the viability at 28.5 h, 10 µM turned out to be 90.8%.

For the compound `CCOC(=O)N1CCC(NC(=O)N(CCc2ccccc2)Cc2ccccc2)CC1` [CBK155359], the viability at 28.5 h, 10 µM turned out to be 107%.

As for `COc1ccccc1N1CCN(C(=O)NCc2cnc(C)cn2)CC1` [CBK155367], the viability at 28.5 h, 10 µM stood at 105%.

Take `COc1ccccc1N1CCN(C(=O)NCCc2c[nH]cn2)CC1` [CBK155369]: the viability at 28.5 h, 10 µM was found to be 98.8%.

In the case of `COc1cc(C(=O)N2CCC(n3c(=O)[nH]c4c(C)cccc43)CC2)ccc1C` [CBK155372], the viability at 28.5 h, 10 µM came out at 94.2%.

As to `COC(=O)C1CCN(Cc2ccc(-c3nnn(CC(=O)NCc4ccc(C)cc4)n3)cc2)C1` (stereo not shown) [CBK155406T], the viability at 28.5 h, 10 µM came to 105%.

As for `Cc1ccc(CNC(=O)Cn2nnc(-c3ccc(CN4CCC(S(C)(=O)=O)C4)cc3)n2)cc1` (stereo not shown) [CBK155407T], the viability at 28.5 h, 10 µM is 91.7%.

On to `CCCS(=O)(=O)Nc1cccc(-c2nnn[nH]2)c1` [CBK155417], for which the viability at 28.5 h, 10 µM was found to be 104%.

Consider `O=[N+]([O-])c1ccccc1CS(=O)(=O)Nc1ccc(-c2nnn[nH]2)cc1` [CBK155430], for which the viability at 28.5 h, 10 µM worked out at 94.5%.

As for `O=C(Nc1cccc(C(=O)O)c1)Nc1cccc(-c2ccccc2)c1` [CBK155451G], the viability at 28.5 h, 10 µM was 93.5%.

For the compound `O=C(Nc1cccc(-c2nnn[nH]2)c1)Nc1ccc(Cl)c(Cl)c1` [CBK155454], the viability at 28.5 h, 10 µM worked out at 96.3%.

For the compound `O=C(Nc1cccc(C(=O)O)c1)Nc1ccc(Cl)c(Cl)c1` [CBK155455G], the viability at 28.5 h, 10 µM worked out at 88.7%.

For `O=C(NCc1ccc(Cl)c(Cl)c1)Nc1cccc(C(=O)O)c1` [CBK155461G], the viability at 28.5 h, 10 µM came out at 109%.

Consider `CCc1c(C)nc2ccccc2c1[S+]([O-])CCC(=O)OC` (stereo not shown) [CBK155467T], for which the viability at 28.5 h, 10 µM was 91.8%.

On to `CCc1c(C)nc2ccccc2c1S(=O)(=O)CCC(=O)OC` [CBK155468T], for which the viability at 28.5 h, 10 µM amounted to 96.8%.

For the compound `O=C(Nc1ccc(Br)cc1)C1CCCN1S(=O)(=O)c1ccc(Cl)cc1` (stereo not shown) [CBK155481], the viability at 28.5 h, 10 µM worked out at 88.4%.

With `CCc1c(C)nc2ccccc2c1SCCOC(=O)Nc1cccc([N+](=O)[O-])c1` [CBK155545T], the viability at 28.5 h, 10 µM is 106%.

As for `COc1ccc(C)cc1S(=O)(=O)n1cc2c3c(cccc31)CN(C(=O)CN(C)C)C2` [CBK155549T], the viability at 28.5 h, 10 µM came to 93.3%.

On to `O=S(=O)(Nc1ccc(-c2nnn[nH]2)cc1)c1c(Cl)cc(C(F)(F)F)cc1Cl` [CBK155570], for which the viability at 28.5 h, 10 µM is 95.4%.

In the case of `CCCCOc1ccc(OC(=O)COCCOCCN2C(=O)c3ccccc3C2=O)cc1` [CBK155584], the viability at 28.5 h, 10 µM amounted to 92.6%.

As to `COc1ccccc1N1CCN(C(=O)NCC2CCCCC2)CC1` [CBK155588], the viability at 28.5 h, 10 µM is 98.3%.

In the case of `COc1ccccc1N1CCN(C(=O)Nc2ccc(Cl)cc2)CC1` [CBK155597], the viability at 28.5 h, 10 µM is 94.5%.

Regarding `COc1ccccc1N1CCN(C(=O)NCCC(C)C)CC1` [CBK155611], the viability at 28.5 h, 10 µM worked out at 94.5%.

On to `CSCCCNC(=O)N1CCN(Cc2ccccc2)CC1` [CBK155623], for which the viability at 28.5 h, 10 µM is 89.9%.

For the compound `O=C(NCc1ccc(Cl)c(Cl)c1)N1CCN(Cc2ccccc2)CC1` [CBK155624], the viability at 28.5 h, 10 µM is 85.3%.

For the compound `Cc1cnc(CNC(=O)N2CCN(Cc3ccccc3)CC2)cn1` [CBK155627], the viability at 28.5 h, 10 µM was found to be 99.3%.

With `O=C(NCc1cccc2ccccc12)N1CCN(Cc2ccccc2)CC1` [CBK155628], the viability at 28.5 h, 10 µM is 92.2%.

On to `O=C(NCCc1c[nH]cn1)N1CCN(Cc2ccccc2)CC1` [CBK155629], for which the viability at 28.5 h, 10 µM was 96.4%.

With `O=C(NC(c1ccccc1)c1ccccc1)N1CCN(Cc2ccccc2)CC1` [CBK155630], the viability at 28.5 h, 10 µM stood at 86.3%.

In the case of `N#Cc1ccc(CNC(=O)N2CCN(Cc3ccccc3)CC2)cc1` [CBK155637], the viability at 28.5 h, 10 µM turned out to be 90.1%.

Consider `CC(=O)Nc1cccc(NC(=O)N2CCN(Cc3ccccc3)CC2)c1` [CBK155643], for which the viability at 28.5 h, 10 µM is 98%.

`CC(C)CNC(=O)N1CCN(Cc2ccccc2)CC1` [CBK155644]: the viability at 28.5 h, 10 µM was determined as 110%.

In the case of `CCN(CC)CCCNC(=O)N1CCN(Cc2ccccc2)CC1` [CBK155655], the viability at 28.5 h, 10 µM came to 89.8%.

Regarding `O=C1CCCN1CCCNC(=O)N1CCN(Cc2ccccc2)CC1` [CBK155658], the viability at 28.5 h, 10 µM was found to be 104%.

As to `Cc1cc(Cl)cc(Cl)c1S(=O)(=O)Nc1cccc(C(=O)O)c1` [CBK155682], the viability at 28.5 h, 10 µM turned out to be 93%.

In the case of `O=C(O)c1cccc(NS(=O)(=O)c2cccc(Cl)c2Cl)c1` [CBK155686], the viability at 28.5 h, 10 µM came to 94.7%.

Turning to `O=C(O)c1cccc(NS(=O)(=O)c2ccc(F)c(C(F)(F)F)c2)c1` [CBK155693], the viability at 28.5 h, 10 µM is 97.2%.

`O=C(O)c1cccc(NS(=O)(=O)c2ccc3c(c2)OCCO3)c1` [CBK155697]: the viability at 28.5 h, 10 µM was 96.9%.

In the case of `O=C(O)c1cccc(NS(=O)(=O)c2cccnc2)c1` [CBK155700], the viability at 28.5 h, 10 µM came to 101%.

Regarding `O=C(O)c1cccc(NS(=O)(=O)c2ccccc2)c1` [CBK155710], the viability at 28.5 h, 10 µM was 79.7%.

Consider `N#Cc1c(Cl)cccc1Oc1ccc(S(=O)(=O)Nc2cccc(C(=O)O)c2)cc1` [CBK155718], for which the viability at 28.5 h, 10 µM was determined as 108%.

As for `O=C(O)c1cccc(NS(=O)(=O)c2c(Cl)cc(C(F)(F)F)cc2Cl)c1` [CBK155721], the viability at 28.5 h, 10 µM was 96.3%.

As for `O=C(O)c1cccc(NS(=O)(=O)c2ccc(-c3cc(C(F)(F)F)on3)s2)c1` [CBK155722], the viability at 28.5 h, 10 µM was found to be 98%.

As to `O=C(O)c1cccc(NS(=O)(=O)c2ccc(Br)cc2C(F)(F)F)c1` [CBK155724], the viability at 28.5 h, 10 µM is 90.9%.

In the case of `O=C(O)c1cccc(NS(=O)(=O)c2cc(C(F)(F)F)cc(C(F)(F)F)c2)c1` [CBK155725], the viability at 28.5 h, 10 µM was 102%.

`O=C(O)c1cccc(NS(=O)(=O)c2ccc(-c3cnco3)cc2)c1` [CBK155726]: the viability at 28.5 h, 10 µM stood at 97.4%.

In the case of `CN(C)S(=O)(=O)Nc1ccc2c(ccn2Cc2ccccc2)c1` [CBK155765], the viability at 28.5 h, 10 µM was 86.6%.

For `N#Cc1cccc(S(=O)(=O)Nc2cccc3[nH]ccc23)c1` [CBK155771], the viability at 28.5 h, 10 µM turned out to be 60.6%.

For `O=S(=O)(/C=C/c1ccccc1)Nc1cccc2cc[nH]c12` [CBK155788], the viability at 28.5 h, 10 µM worked out at 82.7%.

On to `O=C1CN(C(=O)NCC2COc3ccccc3O2)CCN1` (stereo not shown) [CBK155847], for which the viability at 28.5 h, 10 µM worked out at 88.3%.

For the compound `O=C1CN(C(=O)NC(c2ccccc2)c2ccccc2)CCN1` [CBK155853], the viability at 28.5 h, 10 µM turned out to be 93.6%.

With `O=C1CN(C(=O)NCC2CCCCC2)CCN1` [CBK155854], the viability at 28.5 h, 10 µM amounted to 85.9%.

For `O=C1CN(C(=O)Nc2ccc3[nH]ccc3c2)CCN1` [CBK155858], the viability at 28.5 h, 10 µM was 87%.

The series is the same for the next values; noted with them: human, hela cells, % viability, bulk resorufin, single well.
Take `COc1cc(C(=O)N2CCC(N3C(=O)Cc4ccccc43)CC2)ccc1C` [CBK155465]: the viability at 28.5 h, 10 µM was determined as 84.2%.
